From US20260274833A1 (NiKang Therapeutics, Inc., priority 2022, published 2026)

These molecules were tested against T1, CDK2 (Homo sapiens, UniProt P24941) (assay: Phospho-RB measurement in OVCAR3 cells (HTRF phospho-RB cellular kit)). Conditions: inhibition of RB phosphorylation at S807/811 (HTRF, TR-FRET ratio 665/620), 24 h compound treatment, 0.3 to 10,000 nM.
T1 construct: endogenous in cells; host or cells: OVCAR3 cells
Format: cell-based
How it was run: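 IC50 came from a four-parameter logistic fit of the DMSO-normalized TR-FRET ratio (665/620 nm). That ratio reflects RB phosphorylation at S807/811, read with an HTRF antibody pair 4 h after adding lysate at room temperature.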

IC50 [nM] | SMILES
191 | CN(C)CCN(C)S(=O)(=O)N1CCC(Nc2nccc(-c3sc(C(C)(C)C)nc3-c3cccc(NS(=O)(=O)N4Cc5ccncc5C4)c3F)n2)CC1 [Example 157, N-(3-(2-(tert-butyl)-5-(2-((1-(N-(2-(dimethyl-amino)ethyl)-N-methylsulfamoyl)piperidin-4-yl)amino)-pyrimidin-4-yl)thiazol-4-yl)-2-fluoro-phenyl)-1,3-dihydro-2H-pyrrolo [3,4-c]-pyridine-2-sulfonamide]
99.6 | CC(C)(C)c1nc(-c2cccc(NS(=O)(=O)N3CCc4ccccc43)c2F)c(-c2ccnc(NC3CCN(S(=O)(=O)N4CCNCC4)CC3)n2)s1 [Example 158, N-(3-(2-(tert-butyl)-5-(2-((1-(piperazin-1-ylsulfonyl)piperidin-4-yl)amino)-pyrimidin-4-yl)thiazol-4-yl)-2-fluoro-phenyl)indoline-1-sulfonamide]
4080 | CNCc1ccc2c(c1)CCN2S(=O)(=O)Nc1cccc(-c2nc(C(C)(C)C)sc2-c2ccnc(NC3CCN(S(C)(=O)=O)CC3)n2)c1F [Example 159, N-(3-(2-(tert-butyl)-5-(2-((1-(methylsulfonyl)-piperidin-4-yl)amino)-pyrimidin-4-yl)thiazol-4-yl)-2-fluoro-phenyl)-5-((methylamino)methyl)-indoline-1-sulfonamide]
4040 | CNCc1ccc2c(c1)N(S(=O)(=O)Nc1cccc(-c3nc(C(C)(C)C)sc3-c3ccnc(NC4CCN(S(C)(=O)=O)CC4)n3)c1F)CC2 [Example 160, N-(3-(2-(tert-butyl)-5-(2-((1-(methylsulfonyl)-piperidin-4-yl)amino)-pyrimidin-4-yl)thiazol-4-yl)-2-fluoro-phenyl)-6-((methylamino)methyl)-indoline-1-sulfonamide]
1800 | CN(C)C(=O)c1ccc2c(c1)CN(S(=O)(=O)Nc1cccc(-c3nc(C(C)(C)C)sc3-c3ccnc(NC4CCN(S(C)(=O)=O)CC4)n3)c1F)C2 [Example 161, 2-(N-(3-(2-(tert-butyl)-5-(2-((1-(methyl-sulfonyl)piperidin-4-yl)amino)pyrimidin-4~yl)thiazol~4-yl)-2-fluorophenyl)-sulfamoyl)-N,N-dimethyl-isoindoline-5-carboxamide]
2120 | CC(C)(C)c1nc(-c2cccc(NS(=O)(=O)N3CCc4cnccc43)c2F)c(-c2ccnc(NC3CCN(S(C)(=O)=O)CC3)n2)s1 [Example 162, N-(3-(2-(tert-butyl)-5-(2-((1-(methylsulfonyl)piperidin-4-yl)amino)-pyrimidin-4-yl)thiazol-4-yl)-2-fluoro-phenyl)-2,3-dihydro-1H-pyrrolo [3,2-c]-pyridine-1-sulfonamide]
2430 | CN(C)C(=O)c1cccc2c1CN(S(=O)(=O)Nc1cccc(-c3nc(C(C)(C)C)sc3-c3ccnc(NC4CCN(S(C)(=O)=O)CC4)n3)c1F)C2 [Example 163, 2-(N-(3-(2-(tert-butyl)-5-(2-((1-(methyl-sulfonyl)piperidin-4-yl)amino)pyrimidin-4-yl)thiazol-4-yl)-2-fluorophenyl)-sulfamoyl)-N, N-dimethyliso-indoline-4-carboxamide]
2670 | CNCCOc1cccc2c1CN(S(=O)(=O)Nc1cccc(-c3nc(C(C)(C)C)sc3-c3ccnc(NC4CCN(S(C)(=O)=O)CC4)n3)c1F)C2 [Example 164, N-(3-(2-(tert-butyl)-5-(2-((1-(methylsulfonyl)-piperidin-4-yl)amino)-pyrimidin-4-yl)thiazol-4-yl)-2-fluoro-phenyl)-4-(2-(methylamino)-ethoxy)-isoindoline-2-sulfonamide]
277 | CC(C)(C)c1nc(-c2cccc(NS(=O)(=O)N3CCC4(CC4)C3)c2F)c(-c2ccnc(NC3CCN(S(C)(=O)=O)CC3)n2)s1 [Example 166, N-(3-(2-(tert-butyl)-5-(2-((1-(methylsulfonyl)-piperidin-4-yl)amino)-pyrimidin-4-yl)thiazol-4-yl)-2-fluoro-phenyl)-5-azaspiro[2.4] heptane-5-sulfonamide]
410 | CN(C)Cc1cccc2c1CN(S(=O)(=O)Nc1cccc(-c3nc(C(C)(C)C)sc3-c3ccnc(NC4CCN(S(C)(=O)=O)CC4)n3)c1F)C2 [Example 167, N-(3-(2-(tert-butyl)-5-(2-((1-(methylsulfonyl)-piperidin-4-yl)amino)-pyrimidin-4-yl)thiazol-4-yl)-2-fluoro-phenyl)-4-((dimethylamino)-methyl)-isoindoline-2-sulfonamide]
1590 | CC(C)(C)c1nc(-c2cccc(NS(=O)(=O)N3CCc4ccc(C(N)=O)cc43)c2F)c(-c2ccnc(NC3CCN(S(C)(=O)=O)CC3)n2)s1 [Example 168, 1-(N-(3-(2-(tert-butyl)-5-(2-((1-(methyl-sulfonyl)piperidin-4-yl)amino)pyrimidin-4-yl)thiazol-4-yl)-2-fluorophenyl)-sulfamoyl)-indoline-6-carboxamide]
2250 | CC(C)(C)c1nc(-c2cccc(NS(=O)(=O)N3CCC4(CCCC4)C3)c2F)c(-c2ccnc(NC3CCN(S(C)(=O)=O)CC3)n2)s1 [Example 169, N-(3-(2-(tert-butyl)-5-(2-((1-(methylsulfonyl)-piperidin-4-yl)amino)-pyrimidin-4-yl)thiazol-4-yl)-2-fluoro-phenyl)-2-azaspiro [4.4]nonane-2-sulfonamide]
62 | CC(C)(C)c1nc(-c2cccc(NS(=O)(=O)N3CCc4ccc(C#N)cc43)c2F)c(-c2ccnc(NC3CC4(C3)CS(=O)(=O)C4)n2)s1 [Example 170, N-(3-(2-(tert-butyl)-5-(2-((2,2-dioxido-2-thiaspiro[3.3]heptan-6-yl)amino)-pyrimidin-4-yl)thiazol-4-yl)-2-fluoro-phenyl)-6-cyano-indoline-1-sulfonamide]
2120 | CN(C)Cc1ccc2c(c1)CN(S(=O)(=O)Nc1cccc(-c3nc(C(C)(C)C)sc3-c3ccnc(NC4CCN(S(C)(=O)=O)CC4)n3)c1F)C2 [Example 171, N-(3-(2-(tert-butyl)-5-(2-((1-(methylsulfonyl)-piperidin-4-yl)amino)-pyrimidin-4-yl)thiazol-4-yl)-2-fluoro-phenyl)-5-((dimethylamino)methyl)-isoindoline-2-sulfonamide]
3170 | CNCc1cccc2c1CN(S(=O)(=O)Nc1cccc(-c3nc(C(C)(C)C)sc3-c3ccnc(NC4CCN(S(C)(=O)=O)CC4)n3)c1F)C2 [Example 172, N-(3-(2-(tert-butyl)-5-(2-((1-(methylsulfonyl)-piperidin-4-yl)amino)-pyrimidin-4-yl)thiazol-4-yl)-2-fluoro-phenyl)-4-((methylamino)methyl)-isoindoline-2-sulfonamide]
385 | CN(C1CNC1)S(=O)(=O)N1CCC(Nc2nccc(-c3sc(C(C)(C)C)nc3-c3cccc(NS(=O)(=O)N4Cc5ccccc5C4)c3F)n2)CC1 [Example 173, N-(3-(5-(2-((1-(N-(azetidin-3-yl)-N-methylsulfamoyl)piperidin-4-yl)amino)-pyrimidin-4-yl)-2-(tert-butyl)thiazol-4-yl)-2-fluorophenyl) isoindoline-2-sulfonamide]
853 | CC(C)(C)c1nc(-c2cccc(NS(=O)(=O)N3CCC4(CCC4)C3)c2F)c(-c2ccnc(NC3CCN(S(C)(=O)=O)CC3)n2)s1 [Example 174, N-(3-(2-(tert-butyl)-5-(2-((1-(methylsulfonyl)-piperidin-4-yl)amino)-pyrimidin-4-yl)thiazol-4-yl)-2-fluoro-phenyl)-6-azaspiro [3.4]octane-6-sulfonamide]
943 | CC(C)(C)c1nc(-c2cccc(NS(=O)(=O)N3CCC4(CC4)C3)c2F)c(-c2ccnc(NC3CCN(S(=O)(=O)N4CCNCC4)CC3)n2)s1 [Example 175, N-(3-(2-(tert-butyl)-5-(2-((1-(piperazin-1-ylsulfonyl)piperidin-4-yl)amino)-pyrimidin-4-yl)thiazol-4-yl)-2-fluoro-phenyl)-5-azaspiro [2.4]heptane-5-sulfonamide]
1920 | CC(C)(C)c1nc(-c2cccc(NS(=O)(=O)N3CCC4(CCCC4)C3)c2F)c(-c2ccnc(NC3CCN(S(=O)(=O)N4CCNCC4)CC3)n2)s1 [Example 176, N-(3-(2-(tert-butyl)-5-(2-((1-(piperazin-1-ylsulfonyl)piperidin-4-yl)amino)-pyrimidin-4-yl)thiazol-4-yl)-2-fluoro-phenyl)-2-azaspiro[4.4] nonane-2-sulfonamide]
1020 | CC(C)(C)c1nc(-c2cccc(NS(=O)(=O)N3CCC4(CCC4)C3)c2F)c(-c2ccnc(NC3CCN(S(=O)(=O)N4CCNCC4)CC3)n2)s1 [Example 177, N-(3-(2-(tert-butyl)-S-(2-((1-(piperazin-1-ylsulfonyl)piperidin-4-yl)amino)-pyrimidin-4-yl)thiazol-4-yl)-2-fluoro-phenyl)-6-azaspiro[3.4] octane-6-sulfonamide]
203 | CC(C)c1nc(-c2cccc(NS(=O)(=O)N3CCc4ccccc43)c2F)c(-c2ccnc(NC3CCN(S(=O)(=O)N4CCNCC4)CC3)n2)s1 [Example 178, N-(2-fluoro-3-(2-isopropyl-5-(2-((1-(piperazin-1-ylsulfonyl)piperidin-4-yl)amino)pyrimidin-4-yl)thiazol-4-yl)phenyl)indoline-1-sulfonamide]
241 | CN1CC(N(C)S(=O)(=O)N2CCC(Nc3nccc(-c4sc(C(C)(C)C)nc4-c4cccc(NS(=O)(=O)N5Cc6ccccc6C5)c4F)n3)CC2)C1 [Example 179, N-(3-(2-(tert-butyl)-5-(2-((1-(N-methyl-N-(1-methylazetidin-3-yl)sulfamoyl)-piperidin-4-yl)amino)pyrimidin-4-yl)-thiazol-4-yl)-2-fluorophenyl)-isoindoline-2-sulfonamide]
2820 | CC(C)(C)c1nc(-c2cccc(NS(=O)(=O)N3CCC4(CC4)C3)c2F)c(-c2ccnc(NC3CC4(C3)CS(=O)(=O)C4)n2)s1 [Example 180, N-(3-(2-(tert-butyl)-5-(2-((2,2-dioxido-2-thiaspiro[3.3]heptan-6-yl)amino)-pyrimidin-4-yl)thiazol-4-yl)-2-fluoro-phenyl)-5-azaspiro[2.4] heptane-5-sulfonamide]
